One experiment concerns the target T1, P2X7 receptor (Mus musculus, UniProt Q9Z1M0).
T1 construct: imaged continuously before and after αβ-meATP, Bz-ATP and 2Me-SADP application (100 μM); endogenous in cells; host or cells: Primary periventricular endothelial cells from mouse embryonic telencephalon
T1 sequence (Q9Z1M0 1-595): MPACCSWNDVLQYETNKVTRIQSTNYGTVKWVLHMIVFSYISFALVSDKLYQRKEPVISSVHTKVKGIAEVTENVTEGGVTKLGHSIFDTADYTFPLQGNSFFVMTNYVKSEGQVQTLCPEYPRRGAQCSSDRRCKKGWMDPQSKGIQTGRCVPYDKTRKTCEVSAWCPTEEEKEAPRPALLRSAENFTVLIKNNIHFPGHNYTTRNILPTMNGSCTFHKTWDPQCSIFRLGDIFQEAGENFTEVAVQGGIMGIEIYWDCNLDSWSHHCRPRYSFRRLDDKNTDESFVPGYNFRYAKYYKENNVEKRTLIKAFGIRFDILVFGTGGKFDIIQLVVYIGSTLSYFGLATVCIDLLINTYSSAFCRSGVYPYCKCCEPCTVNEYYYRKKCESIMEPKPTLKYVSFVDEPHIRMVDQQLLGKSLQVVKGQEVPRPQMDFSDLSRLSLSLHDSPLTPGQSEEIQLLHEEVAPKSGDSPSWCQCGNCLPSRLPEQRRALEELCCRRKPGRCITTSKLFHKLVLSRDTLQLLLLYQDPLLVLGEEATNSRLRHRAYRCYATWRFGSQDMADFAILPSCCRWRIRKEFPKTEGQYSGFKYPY
Nature of the experiment: Calcium imaging, P2X7 agonist. In kind it is cell-based. The following applies: 100 μM; periventricular endothelial cells. The protocol: (§1) Calcium imaging: For Ca^2+ assays, periventricular endothelial cells (1 million cells per assay) were incubated with the Ca^2+ indicator dye FluoForte AM according to manufacturer's instructions (Enzo Life Sciences), loaded into the chamber of an FSX 100 microscope and imaged continuously before and after αβ-meATP, Bz-ATP and 2Me-SADP application (100 μM). Fluorescence micrographs were digitalized and results were expressed as change in fluorescence over baseline fluorescence.
(§2) An important aspect that influences endothelial cell proliferation is Ca^2+ influx, which is important for cell cycle progression in the neocortex. GABAA receptor activation in Gabrb3^fl/fl periventricular endothelial cells leads to an influx of Ca^2+ that influences cell proliferation. However, in Gabrb3^ECKO periventricular endothelial cells, due to the deletion of the β3 subunit, the GABAA receptors are dysfunctional. So, the autocrine feedback loop of GABA acting on GABAA receptors will not work in these Gabrb3^ECKO endothelial cells to cause Ca^2+ influx, even if GABA secretion is restored. […] Therefore, P2X4 expression at both mRNA and protein levels in periventricular endothelial cells were evaluated, prepared after the six-day saline and NAD^+ treatment paradigm (FIGS. 11J-11O). […]

In experiment [1] the target is T2, P2X4 receptor (Mus musculus, UniProt Q9JJX6).
T2 construct: endogenous in cells; host or cells: Primary periventricular endothelial cells from mouse embryonic telencephalon (CD1 wild type; Gabrb3 fl/fl; Gabrb3 ECKO with or without NAD+)
T2 sequence (Q9JJX6 1-388): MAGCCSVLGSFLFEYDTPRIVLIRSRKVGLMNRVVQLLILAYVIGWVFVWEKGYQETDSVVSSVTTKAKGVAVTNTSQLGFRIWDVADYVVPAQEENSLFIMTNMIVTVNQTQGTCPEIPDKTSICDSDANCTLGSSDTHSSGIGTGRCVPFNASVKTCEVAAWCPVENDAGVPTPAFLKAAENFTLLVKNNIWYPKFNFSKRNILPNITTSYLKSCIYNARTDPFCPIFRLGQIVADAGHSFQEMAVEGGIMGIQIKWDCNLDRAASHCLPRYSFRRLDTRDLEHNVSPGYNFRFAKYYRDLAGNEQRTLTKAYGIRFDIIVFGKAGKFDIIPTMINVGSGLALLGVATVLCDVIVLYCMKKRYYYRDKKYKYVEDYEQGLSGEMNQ
Nature of the experiment: Calcium imaging, P2X receptor agonist. Format: cell-based. The following applies: 100 μM. As for the experimental part:
as §1
(§3) An important aspect that influences endothelial cell proliferation is Ca^2+ influx, which is important for cell cycle progression in the neocortex. GABAA receptor activation in Gabrb3^fl/fl periventricular endothelial cells leads to an influx of Ca^2+ that influences cell proliferation. However, in Gabrb3^ECKO periventricular endothelial cells, due to the deletion of the β3 subunit, the GABAA receptors are dysfunctional. So, the autocrine feedback loop of GABA acting on GABAA receptors will not work in these Gabrb3^ECKO endothelial cells to cause Ca^2+ influx, even if GABA secretion is restored. In the absence of this mechanism, it was questioned whether the prenatal NAD^+ treatment was able to activate alternate mechanisms to trigger Ca^2+ influx in Gabrb3^ECKO endothelial cells. […] Therefore, P2X4 expression at both mRNA and protein levels in periventricular endothelial cells were evaluated, prepared after the six-day saline and NAD^+ treatment paradigm (FIGS. 11J-11O). P2X4 has been reported as the most abundantly expressed P2X receptor subtype in vascular endothelial cells from several tissues and its deficiency affects normal endothelial cell responses, such as Ca^2+ influx. However, P2X4 expression and functional significance in embryonic forebrain endothelial cells is unknown. […] To test whether P2X4 receptor activation on endothelial cells leads to an influx of Ca^2+, periventricular endothelial cells were incubated from the three groups in the presence of αβ-meATP that has been reported to show agonist activity at P2X receptors, including P2X4 (FIGS. 11N-11Q). […]

The target in experiment [2] is T2, P2X4 receptor. Nature of the experiment: P2X4 activation/inactivation in wild type endothelial cells: Daxx mRNA and GABA ELISA. Format: cell-based. Particulars: cultured wild type periventricular endothelial cells. The protocol:
Quantitative real-time PCR: RT was performed by using iScript Reverse Transcription Supermix kit (Bio-Rad). PCR reactions were run on a CFX96 Touch Real Time PCR (Bio-Rad) with SsoAdvanced™ Universal SYBR® Green Supermix (Bio-Rad). Primers for qPCR (Daxx, P2x4, P2x7, P2y13, Tek, vwf, F2r, Sirt2, Nos1, Nrp1, Pax6, Gad1, Gad2, Grin2a, Trpm2, Trpc4 and Trpv6) were obtained from Thermo Fisher Scientific. The housekeeping gene Gapdh was used as a reference. The relative gene expression and subsequent fold changes among different samples were determined according to published methodology.
ELISA: Periventricular endothelial cells were prepared after the NAD^+ treatment paradigm, or after the treatment with purinergic receptor agonists/antagonists, and seeded in 12 well culture plates at 0.1×10^6 cells/well. Supernatants from endothelial cell cultures were collected after 96 hours and stored at −80° C. for ELISA. GABA concentrations were quantitatively determined by competitive ELISA according to the manufacturers' protocol (GABA Research ELISA kits, Labor Diagnostica Nord, Germany), and absorbance was measured using a multiplate microplate fluorescence reader (Molecular Devices, CA) at 450 nm.
as §3
A general note: An ELISA detects its analyte on a solid surface through an enzyme-linked reagent.

The target in a further experiment is T3, P2Y13 receptor (Mus musculus, UniProt Q9D8I2).
T3 construct: imaged continuously before and after αβ-meATP, Bz-ATP and 2Me-SADP application (100 μM); endogenous in cells; host or cells: Primary periventricular endothelial cells from mouse embryonic telencephalon
T3 sequence (Q9D8I2 1-337): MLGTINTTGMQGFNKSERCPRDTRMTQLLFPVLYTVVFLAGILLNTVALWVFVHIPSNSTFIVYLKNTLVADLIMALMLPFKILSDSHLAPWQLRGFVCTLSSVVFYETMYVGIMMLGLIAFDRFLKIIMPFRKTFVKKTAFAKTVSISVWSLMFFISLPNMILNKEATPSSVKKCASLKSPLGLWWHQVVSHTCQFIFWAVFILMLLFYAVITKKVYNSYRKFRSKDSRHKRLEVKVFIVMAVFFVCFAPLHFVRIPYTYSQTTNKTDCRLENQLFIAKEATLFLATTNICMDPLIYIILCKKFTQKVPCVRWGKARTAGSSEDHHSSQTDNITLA
Nature of the experiment: Calcium imaging, P2Y13 agonist. Format: cell-based. The following applies: 100 μM; periventricular endothelial cells. As for the experimental part:
as §1, §2

Experiment [3] relates to periventricular endothelial cells isolated from E15 wildtype (CD1) forebrain. Nature of the experiment: Endothelial cell proliferation in culture (confluency, BrdU labeling index). Format: cell-based, mouse. Particulars: 30 μM and 100 μM. The protocol:
Primary culture of endothelial cells and endothelial cell staining: Embryonic brains were dissected under a stereo-microscope, after the NAD^+ treatment paradigm and the telencephalon was removed. Pial membranes were peeled off. Telencephalon without pial membranes from the periventricular region was pooled. Purity of endothelial cell cultures was established with endothelial cell markers and determined to be one hundred percent. Isolation and culture of endothelial cells were performed according to published methodology. Periventricular endothelial cells were prepared from CD1 (wild type), saline-treated Gabrb3^fl/fl, saline-treated Gabrb3^ECKO, and NAD^+-treated Gabrb3^ECKO embryos. Endothelial cells were labeled with anti-biotinylated isolectinB4 (1:100, Sigma), anti-GABA (1:400, Sigma), anti-DAXX (1:100, Santa Cruz Biotechnology) and anti-P2X4 (1:100, Abclonal) followed by secondary detection with AlexaFluor conjugates (Invitrogen). DAPI (Invitrogen) was used to label nuclei. Images were taken on an FSX100 microscope (Olympus). 1 million cells were examined for each immunohistochemistry condition.
Endothelial cell proliferation and long-distance cell migration assay: To test for cell proliferation, CD1 periventricular endothelial cells (1 million cells per experiment) were incubated in the presence of the mitotic marker 5-bromo-2′-deoxyuridine (0.05% BrdU) with or without muscimol, for 1 hour to examine the impact on proliferation of these cells and processed for BrdU immunohistochemistry.
In one experiment, periventricular endothelial cells were isolated from E15 wildtype (CD1) forebrain and tested the effect of NAD^+ addition in vitro. Exogenous addition of 100 μM NAD^+ was able to initiate significant endothelial cell proliferation within 2 days of culture and a 35 mm culture dish was confluent within 4-6 days (FIGS. 2A-2D). This was an interesting observation, since untreated periventricular endothelial cells take approximately 12 days to reach confluency in 35mm dishes, in our well-established culture conditions. […] Vital elements of angiogenesis include effective endothelial cell proliferation, migration, sprouting, alignment, tube formation and branching. […] In some areas of the dish, the NAD^+-treated endothelial cells seemed to align and fold into tubular shapes (FIG. 2H), aspects that we have not seen in wild type or untreated periventricular endothelial cells in normal culture conditions.
Effects of NAD^+ addition to periventricular endothelial cells isolated from E15 wildtype (CD1) forebrain was more robust than GABA. (FIGS. 17A-17F) Phase contrast images of periventricular endothelial cells cultured from E15 CD1 forebrain at different time points in untreated conditions (FIGS. 17A-17B) or after plating with NAD^+ addition (100 μM; FIGS. 17C-17D) or GABA addition (5 μM; FIGS. 17E-17F). […] (FIG. 17G) All groups of periventricular endothelial cells were exposed to BrdU (1 mM BrdU per ml medium) for 1 hour followed by Isolectin B4/BrdU double labeling. Quantification of BrdU labeling indices; Data represents mean±SD (n=8, *P<0.05; Student's t-test).
A general note: Uptake of a labelled nucleoside into DNA is a usual measure of proliferation.

For Bz-ATP, the “influx of Ca^2+” value at P2X7 receptor is recorded as “produced an influx of Ca^2+”.

As to `Nc1ncnc2c1ncn2[C@@H]1O[C@H](COP(=O)(O)CP(=O)(O)OP(=O)(O)O)[C@@H](O)[C@H]1O` [αβ-meATP], the intracellular calcium entry at P2X4 receptor [1] (NAD^+-treated Gabrb3^ECKO endothelial cells) is on record as “significant increase in intracellular calcium”; at P2X4 receptor [1] (saline-treated Gabrb3^ECKO endothelial cells) it was “no marked increase in intracellular calcium”; on P2X4 receptor [1] (saline-treated Gabrb3^fl/fl endothelial cells), “significant increase in intracellular calcium”. Further, the “Daxx mRNA expression” value on P2X4 receptor [2] is “reduced Daxx expression”. Besides, at P2X4 receptor [2], the “GABA secretion by ELISA” value is “increased GABA secretion”.

For the molecule `CSc1nc(N)c2ncn([C@@H]3O[C@H](COP(=O)(O)OP(=O)(O)O)[C@@H](O)[C@H]3O)c2n1` [2Me-SADP], the “influx of Ca^2+” value at P2Y13 receptor is reported as “produced an influx of Ca^2+”.

Regarding `NCCCC(=O)O` [GABA, reference compound], the endothelial cell proliferation entry in experiment [3] is listed as “no notable effect on cell proliferation”.

Take `O=C1CC(=O)N(c2cccc(-c3nc(=S)o[nH]3)c2)c2ccc3ccccc3c2N1` [+NP-1815-PX, NP-1815-PX]: on P2X4 receptor [2], the “Daxx mRNA expression” value was “increased Daxx expression” and the “GABA secretion by ELISA” value is recorded as “reduced GABA secretion”.

The values above are taken from US20220096515A1, “Methods and Formulations for Preventing Neurological or Psychiatric Disorders” (Huntington Medical Research Institutes, priority 2020, published 2022).
